A short description of this series: Phase-Ib study in CF patients, plasma pharmacokinetics (LC-MS/MS). It is filed as in vivo. To be noted: human, inhaled or intranasal; for Tmax: inhalation, CF patients; for level at 24 h: read-out: mean plasma concentration 24 hours after inhalation; for half-life: read-out: mean terminal half-life (plasma) (converted). Here is the method:
AUC0-∞, AUC0-∞/D, Cmax, Cmax/D of active compound in plasma as primary variables and tmax, t1/2, λ2, […] of active compound in plasma as secondary variables.
Blood samples for the determination of the plasma concentrations of active compound were taken at the following points in time:
On Day 1 at pre-dose, 10 min, and 0.5 h, 1 h, 2 h, 3 h, 4 h, 6 h, 8 h, 12 h, 15 h, and on Day 2 at 24 h post dose (after start of inhalation).
The samples were collected in closed K3-EDTA plasma sampling tubes (Monovette® Sarstedt, Germany). The accepted time-interval for sample handling procedures for each individual study sample, i.e., the time between sample collection and sample centrifugation had not to exceed 60 min, and the time between the end of centrifugation and sample freezing had also not to exceed 60 min.
The samples were centrifuged at approximately 4° C. (±2° C.) at 2200×g for 15 min.
The resulting plasma supernatant was then transferred into 2 polypropylene tubes (1st aliquot of at least 1 mL and backup) and frozen in upright position below […]
For the analysis of active compound in plasma, a validated and highly sensitive liquid chromatography tandem mass spectrometry (LC-MS/MS) method was used.
The pharmacokinetic parameters mentioned above were calculated based on actual blood and sputum sampling times using non-compartmental procedures.

Read-outs that look alike come from different tables or passages of the source. Non-standard residues stand in square brackets, D forms with d. Residues, ends and D or L forms follow the SMILES beside them. Gly(octyl) = CCCCCCCC[C@H](N)C(=O)O

Regarding `CCCCCCCC[C@@H]1NC(=O)[C@@H]2CCCN2C(=O)[C@H]2CCCN2C(=O)[C@H](Cc2ccc(O)cc2)NC(=O)[C@H](CCCCN)NC(=O)[C@H](CCC(N)=O)NC(=O)[C@@H]2CCCN2C(=O)[C@@H]2CCCN2C(=O)[C@H]([C@@H](C)CC)NC(=O)[C@H](CO)NC(=O)[C@H](C)NC(=O)[C@H]([C@@H](C)O)NC(=O)[C@H](CCC(=O)O)NC1=O` [active compound, cyclo(-OctG-Glu-Thr-Ala-Ser-Ile-Pro-Pro-Gln-Lys-Tyr-^DPro-Pro-)] (cyclo([Gly(octyl)]ETASIPPQKY[dP]P)), for the setting “dose group 1 (80 mg)”, the Tmax was determined as 1.3 h, the level at 24 h amounted to 2.8 ng/mL and the half-life is 4.1 h. In addition, where the note is “dose group 2 (160 mg)”, the time to peak (Tmax) worked out at 1.5 h, the level at 24 h turned out to be 4.4 ng/mL and the half-life is 3.5 h. Under “dose group 3 (320 mg)”, the Tmax is 2.3 h, the level at 24 h came out at 15.2 ng/mL and the half-life was 3.8 h.

A word on the Tmax: it is the time at which the peak concentration occurs. Usually half-life stands for the time in which the quantity being followed falls by half.

Values taken from patent US11235023B2, “Beta-hairpin peptidomimetic with elastase inhibitory activity and aerosol dosage forms thereof” (POLYPHOR AG, priority 2016, dated 2022).
